Experimental findings from ChEMBL document CHEMBL3232965, “The σ2 receptor: a novel protein for the imaging and treatment of cancer” (J Med Chem, 2013) are described below.

A short description of data set [1]: Binding affinity to sigma-2 opioid receptor (unknown origin). Also noted: species or system Homo sapiens.
Data set [2] can be described thus: Binding affinity to sigma-1 opioid receptor (unknown origin).
The test system of data set [3] is TRAMP. Briefly: Selectivity ratio of Ki for sigma-1 opioid receptor in TRAMP cell membranes to Ki for sigma-2 opioid receptor in TRAMP cell membranes. It is filed as cell-based. The following applies: Mus musculus.
Data set [4] is filed under the species Homo sapiens. As to the kind of experiment: Selectivity ratio of IC50 for sigma-1 opioid receptor (unknown origin) to IC50 for sigma-2 opioid receptor (unknown origin).
The target of data set [5] is Sigma non-opioid intracellular receptor 1 (Homo sapiens, UniProt Q99720). As to the kind of experiment: Binding affinity to sigma-1 opioid receptor (unknown origin).
Data set [6] in a line: Displacement of [3H]di-o-tolylguanidine from sigma-2 opioid receptor in rat brain. It is filed as tissue-based. For orientation: Loss of bound radioactivity is the signal in a displacement assay; it reports binding, not function.
The species named for data set [7] is Homo sapiens. As to the kind of experiment: Selectivity ratio of Ki for sigma-1 opioid receptor (unknown origin) to Ki for sigma-2 opioid receptor (unknown origin).
The species entered for data set [8] is Cavia porcellus. Briefly: Selectivity ratio of Ki for guinea pig brain membrane sigma-1 opioid receptor to Ki for guinea pig brain membrane sigma-2 opioid receptor.
Data set [9] can be described thus: Binding affinity to guinea pig brain membrane sigma-2 opioid receptor by radioligand displacement assay. Also noted: species or system Cavia porcellus.
Data set [10] has as its target Sigma non-opioid intracellular receptor 1 (Cavia porcellus, UniProt Q60492). As to the kind of experiment: Binding affinity to guinea pig brain membrane sigma-1 opioid receptor by radioligand displacement assay.
Data set [11] can be described thus: Displacement of [3H]ditolylguanidine from sigma-2 opioid receptor in rat liver membranes by liquid scintillation spectrometric analysis. It is filed as cell membranes, Membrane.
Data set [12] is described as follows: Ratio of drug level in nuclear fraction to cytosolic fraction of human MCF7/ADR cells at 20 to 50 uM after 2 hrs by beta counting analysis. It is filed as ADME, cell-based. The following applies: nci/adr-res.
Data set [13] in a line: Ratio of drug level in nuclear fraction to cytosolic fraction of human SK-N-SH cells at 20 to 50 uM after 2 hrs by beta counting analysis. The data set is classed as ADME, cell-based.
The nature of data set [14]: Selectivity ratio of Ki for guinea pig brain sigma-1 opioid receptor to Ki for rat liver sigma-2 opioid receptor.
Data set [15] is filed under the species Cavia porcellus. As to the kind of experiment: Selectivity ratio of Ki for guinea pig hippocampus sigma-1 opioid receptor to Ki for guinea pig hippocampus sigma-2 opioid receptor.
Data set [16] is described as follows: Binding affinity to guinea pig hippocampus sigma-2 opioid receptor. Also noted: species or system Cavia porcellus.
Data set [17] in a line: Displacement of [3H]-DTG from sigma-2 opioid receptor in rat liver.
The nature of data set [18]: Displacement of [3H]progesterone from sigma-1 opioid receptor in porcine liver microsome membranes. It is filed as microsomes, Sus scrofa.
The nature of data set [19]: Lipophilicity, log P of the compound. As to conditions: octanol/water. It is filed as physicochemical.

Sequence of Sigma non-opioid intracellular receptor 1 (Homo sapiens, UniProt Q99720) (Q99720 whole entry): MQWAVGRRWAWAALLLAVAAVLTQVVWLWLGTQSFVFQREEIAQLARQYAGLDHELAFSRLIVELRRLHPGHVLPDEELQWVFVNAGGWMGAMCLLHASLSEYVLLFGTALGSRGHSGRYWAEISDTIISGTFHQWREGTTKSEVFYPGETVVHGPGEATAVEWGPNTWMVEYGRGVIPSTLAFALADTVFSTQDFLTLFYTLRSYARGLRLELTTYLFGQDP
Sequence of Sigma non-opioid intracellular receptor 1 (Cavia porcellus, UniProt Q60492) (Q60492 whole entry): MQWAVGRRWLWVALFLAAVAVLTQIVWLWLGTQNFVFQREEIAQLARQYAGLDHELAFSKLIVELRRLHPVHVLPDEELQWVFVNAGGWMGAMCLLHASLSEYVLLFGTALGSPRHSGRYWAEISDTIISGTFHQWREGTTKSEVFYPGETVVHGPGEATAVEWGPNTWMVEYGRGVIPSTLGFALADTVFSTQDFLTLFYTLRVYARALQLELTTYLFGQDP

Regarding `COc1cc2c(cc1OC)CN(CCNC(=O)c1cc(Br)ccc1OC)CC2`, the results for the Ki in [1] and in data set [2] were 12.4 nM and 5480 nM, respectively.
Regarding `COc1cccc2c(CCCN3CCN(C4CCCCC4)CC3)cccc12`, in [3], the Ratio Ki was 13.
As for `Fc1ccc(C2=CC3CCC(C2)N3CCCCc2cn(-c3ccc(F)cc3)c3ccccc23)cc1` (stereo not drawn), in data set [4], the Ratio IC50 turned out to be 480. For the same molecule, the Ki in data set [5] worked out at 1200 nM; in [1], 2.5 nM.
`CC(=O)c1ccc2c(c1)oc(=O)n2CCCCN1CCN(c2ccc(F)cc2)CC1`: in [6], the inhibition constant (Ki) worked out at 7 nM.
Consider `CN1CC[C@]2(c3cccc(O)c3)CC(=O)/C(=C/c3ccc(Cl)c(Cl)c3)[C@H]1C2`, for which the Ratio Ki in data set [7] was found to be 555. For the same molecule, the Ki was 7440 nM in [5] and 13.4 nM in data set [1].
For `CC[C@H]1C[C@H]2C[C@H]3c4[nH]c5ccc(OC)cc5c4CCN(C2)[C@@H]13` [IBOGAINE], the Ratio Ki in data set [7] was 43. The molecule also had a Ki in data set [1] of 201 nM.
On to `COC(=O)[C@@]1(c2ccccc2)C[C@H]1CN1C2CCC1CC(O)(c1ccc(Cl)cc1)C2` (stereo partly drawn), for which the Ratio Ki in data set [8] turned out to be 20.6.
In [5], `CC[C@H]1C[C@@H]2C[C@H]3c4[nH]c5ccc(OC)cc5c4CCN(C2)[C@@H]13` [IBOGAINE] returned a Ki of 8550 nM. This counts as single-digit micromolar.
In the case of `OC12C3C4CC5C6C4C1C6C(C53)N2Cc1ccc(F)cc1` (stereo not drawn), the Ratio Ki in [8] came to 7.6. Further, the Ki in data set [9] was 20 nM; in [10] it was 152 nM.
Take `CC(=O)[C@H]1CC[C@H]2[C@@H]3CCC4=CC(=O)CC[C@]4(C)[C@H]3CC[C@]12C` [PROGESTERONE]: in data set [11], the Kd is 441 nM.
In the case of `COc1cccc2c1CCCC2CCCN1CCN(C2CCCCC2)CC1` (racemic), the Ratio in data set [12] and in [13] was 5 each time. The Ratio Ki in data set [14] worked out at 0.56.
In the case of `CCn1c(=O)n(C(=O)NC2CC3CCC(C2)N3C)c2ccccc21` (stereo not drawn), the Ratio Ki in data set [15] was 197. Affinity in data set [16] was put at a Ki of 32 nM.
Take `Fc1ccccc1N1CCN(CCCn2ccc3ccccc32)CC1`: the Ratio Ki in [7] worked out at 20. Also, the Ki in [5] is 1490 nM; in [1], 75 nM.
Regarding `CS(=O)(=O)n1cc(CCCCN2CCC3(CC2)OCc2ccccc23)c2ccccc21`, the Ratio IC50 in [4] is 26. Also, the results for the Ki in data set [5] and in [1] were 1.3 nM and 0.05 nM, respectively.
Turning to `CN1CC[C@]2(c3cccc(O)c3)CC(=O)/C(=C/c3cccc(O)c3)[C@H]1C2`, the Ratio Ki in data set [7] is 185. Besides, the figures for the Ki in data set [5] and in data set [1] were 3060 nM and 16.5 nM, respectively.
For `COc1ccc(C)cc1NC(=O)OC1CC2CCCC(C1)N2Cc1ccc(N(C)C)cc1` (stereo not drawn) the same measures were 553, 1440 nM and 2.6 nM.
`COc1ccc(CN2C3CCC2CC3)cc1OC` gave an inhibitory constant (Ki) in data set [1] of 43 nM. That is a double-digit nanomolar value.
As to `COc1cc2c(cc1OC)CN(CCNC(=O)c1cc(C)ccc1OC)CC2`, the Ki in [1] worked out at 13.3 nM.
In the case of `COc1cccc2c1CCC[C@H]2NC(=O)CN1CCN(C2CCCCC2)CC1`, in [14], the Ratio Ki amounted to 2. In data set [17], this molecule gave a Ki of 10.1 nM.
As for `COc1cccc2c1CCCC2CCCC1CCN(C2CCCCC2)CC1` (stereo not drawn), in [14], the Ratio Ki was 29. The same molecule returned a Ki in data set [17] of 26.6 nM.
Turning to `CN1CC[C@@]2(c3cccc(O)c3)CC(=O)/C(=C/c3cccc(O)c3)[C@@H]1C2`, the Ratio Ki in [7] amounted to 0.07. Further, the results for the inhibition constant Ki in data set [5] and in data set [1] were 10.5 nM and 153 nM, respectively.
Taken in the same sequence, the figures for `CN1CC[C@@]2(c3cccc(O)c3)CC(=O)/C(=C/c3ccc(Cl)c(Cl)c3)[C@@H]1C2` were 0.77, 27.3 nM and 35.3 nM.
Consider `CC(C)=CCN1CC[C@]2(C)c3cc(O)ccc3C[C@H]1[C@H]2C` [(+)-PENTAZOCINE], for which the Ki in data set [18] came out at 1130 nM. In other words, the single-digit micromolar range.
With `COc1cccc2c1CCCC2CCCN1CCC(C2CCCCC2)CC1` (stereo not drawn), the Ratio Ki in data set [14] was determined as 7.6. In addition, the affinity in [17], expressed as Ki, was 18.8 nM.
`COc1cccc2c1CCC[C@@H]2NC(=O)CN1CCN(C2CCCCC2)CC1`: the Ratio Ki in data set [14] was found to be 16. This molecule returned a Ki in [17] of 6 nM.
In data set [19], `COc1cc(Br)cc(C(=O)NCCCCN2CCN(c3cccc(Cl)c3Cl)CC2)c1OC` gave a lipophilicity (logP) of 5.76. Moreover, the Ki was 75 nM in data set [1] and 809 nM in data set [2].
As for `COc1cc2c(cc1OC)CN(CCCCNC(=O)c1cc(Br)cc(OC)c1OC)CC2`, the affinity in [1] corresponds to a Ki of 8.2 nM. This counts as single-digit nanomolar.
Consider `CCC(Oc1ccc(Cl)cc1)C(=O)OC1CC2CCC(C1)N2C` (racemic), for which the Ratio Ki in data set [7] is > 15. Further, the Ki in [5] was > 1000 nM; in [1], 67.5 nM.
Consider `O=S(=O)(c1ccccc1)n1cc(CCCCN2CCC3(CC2)OCc2ccccc23)c2ccccc21`, for which the Ratio IC50 in data set [4] was 59. For the same molecule, the values for the Ki in data set [5] and in data set [1] were 10 nM and 0.17 nM, respectively.
For the molecule `COc1ccc(C(=O)NCCCCN2CCc3ccc([N+](=O)[O-])cc3C2)c(OC)c1OC`, the Ratio Ki in data set [7] is 385. Also, the results for the Ki in [5] and in data set [1] were 10300 nM and 26.8 nM, respectively.
Take `COc1cc2c(cc1OC)CN(CCNC(=O)c1cc(Br)cc(OC)c1OC)CC2`: the Ratio Ki in data set [7] is 179. For the same molecule, the results for the Ki in data set [1] and in data set [2] were 16.4 nM and 2930 nM, respectively.

The Ki is a dissociation constant, usually derived from enzyme kinetics or from competition with a known ligand. A high value points to a looser hold on the target. What is called Kd is a measure of binding affinity in units of concentration. A high value points to a looser complex. The logP is a log measure of how a compound divides between an organic and an aqueous phase.
